According to paper PMC10799085, “A miniaturized mode-of-action profiling platform enables high throughput characterization of the molecular and cellular dynamics of EZH2 inhibition” (Scientific Reports, 2024):
Where “and” joins values, the source holds several entries; their conditions need not be identical. Equal entries are not always repeated. Where two headings read alike, the source gives them in different places.

How the values were obtained:
in vitro = in vitro ADME; settings: human, Caco-2, pH 7.2, 2 µM, 2 h, 37 °C; for Papp A→B at 2 h, 2 µM: apical to basolateral, read-out: PK Caco-2 Flux Papp A-B (mean); for Papp B→A at 2 h, 2 µM: basolateral to apical, read-out: PK Caco-2 Flux Papp B-A (mean)
Experimental: Cells were kept at 37 °C in a humidified 5% CO2 atmosphere. Before the permeation assay was run, the culture medium was replaced by an FCS-free HEPES carbonate transport buffer (pH 7.2). For assessment of monolayer integrity, the transepithelial electrical resistance was measured. Test compounds were pre-dissolved in DMSO and added either to the apical or basolateral compartment at a final concentration of 2 µM. Before and after 2 h incubation at 37 °C, samples were taken from both compartments. Analysis of compound content was conducted after precipitation with methanol by LC/MS/MS analysis. Reference compounds were analyzed in parallel as assay control. Permeability (Papp) was calculated in the apical to basolateral (A → B) and basolateral to apical (B → A) directions. The efflux ratio basolateral (B) to apical (A) was calculated by dividing Papp B–A by Papp A–B.

[1] = tested on: H3K27me3 mark in MDA-MB-231 cells; experiment: High content analysis (HCA) of cellular H3K27me3 mark, washout format; format: cell-based; settings: for AUC (a.u.): HCA H3K27 methylation washout pIC50 AUC over all incubation/washout times; for IC50: Homo sapiens
Experimental: In the low- and high-signal control wells, test compounds were replaced by 10 µM of EZH2 inhibitor (equal to unlabeled probe from ePCA and kPCA) or DMSO, respectively. […] After fixation, the cells were washed with PBS and incubated with 1% BSA blocking solution at RT for 1 h. Blocking solution was discarded, primary monoclonal antibody rabbit Tri-methyl-histone H3K27 (C36B11, Cell signaling) diluted 1:200 in blocking solution was added and incubated overnight at 4 °C. […] Afterwards, cells were washed three times with PBS and incubated at 4 °C until measuring. Fluorescence signals were captured by an Opera Phenix™ High Content Screening (HCA) system (Perkin Elmer) by 10× magnification. […] Microscopy images were initially visualized and preprocessed with MetaXpress High Content Image Acquisition & Analysis Software (Molecular Devices) as previously described. Raw data import, normalization, quality control and fitting curves for IC50 determination of tested compounds were done with Genedata Screener® for high-content screening. Wells with no recognizable signals were masked and the average intensity of the trimethylation signal was normalized to the DMSO control (0%).

KARPAS-422 cells = experiment: Cellular proliferation assay (AlamarBlue, 144 h); format: cell-based; settings: Homo sapiens; KARPAS-422 cells, 6-day (144 h), AlamarBlue; read-out: KARPAS (6-day) Anti-proliferation IC50
Experimental: Cell viability was determined by means of the AlamarBlue® reagent (Thermo Fisher Scientific) following instructions from the manufacturer. […] Anti-proliferative IC50s were calculated by fitting the normalized AlamarBlue® fluorescence values to a 4-parameter logistic equation using the Electronic Notebook (ELN) software from IDBS.

PRC2/EZH2+/+ [2] = target: T1, PRC2/EZH2+/+ (Homo sapiens, UniProt Q15910); experiment: Equilibrium titration of the fluorescent probe, TR-FRET, -/+ H3K27me3 activator peptide; format: binding
T1 construct: purchased Active Motif

PRC2/EZH2+/+ [3] = target: T1, PRC2/EZH2+/+; experiment: Kinetic titration (association then dissociation) of the fluorescent probe, TR-FRET; format: binding; settings: for Kinetic koff / Kinetic kon: listed as fluorescent EZH2 probe
PRC2/EZH2Y641N [4] = target: T2, PRC2/EZH2Y641N (Homo sapiens, UniProt Q15910, Y641N); experiment: as above; format: binding; settings: EZH2 Y641N, 25 °C; for Kinetic koff / Kinetic kon: listed as fluorescent EZH2 probe
T2 construct: Synthetic cDNA encoding N-terminal 6His-tagged full length EZH2^Y641N; 6His (N); made in house; host or cells: Sf9 insect cells (baculovirus co-infection)

PRC2/EZH2Y641N [5] = target: T2, PRC2/EZH2Y641N; experiment: Equilibrium titration of the fluorescent probe, TR-FRET, -/+ H3K27me3 activator peptide; format: binding; settings: EZH2 Y641N, 25 °C
EZH2 = tested on: EZH2; parameters: method as in Konze et al. [41]; settings: 40-fold higher enzyme concentration; ref Konze et al. [41]; cited from earlier work

T2 sequence (Q15910 whole entry Y641N): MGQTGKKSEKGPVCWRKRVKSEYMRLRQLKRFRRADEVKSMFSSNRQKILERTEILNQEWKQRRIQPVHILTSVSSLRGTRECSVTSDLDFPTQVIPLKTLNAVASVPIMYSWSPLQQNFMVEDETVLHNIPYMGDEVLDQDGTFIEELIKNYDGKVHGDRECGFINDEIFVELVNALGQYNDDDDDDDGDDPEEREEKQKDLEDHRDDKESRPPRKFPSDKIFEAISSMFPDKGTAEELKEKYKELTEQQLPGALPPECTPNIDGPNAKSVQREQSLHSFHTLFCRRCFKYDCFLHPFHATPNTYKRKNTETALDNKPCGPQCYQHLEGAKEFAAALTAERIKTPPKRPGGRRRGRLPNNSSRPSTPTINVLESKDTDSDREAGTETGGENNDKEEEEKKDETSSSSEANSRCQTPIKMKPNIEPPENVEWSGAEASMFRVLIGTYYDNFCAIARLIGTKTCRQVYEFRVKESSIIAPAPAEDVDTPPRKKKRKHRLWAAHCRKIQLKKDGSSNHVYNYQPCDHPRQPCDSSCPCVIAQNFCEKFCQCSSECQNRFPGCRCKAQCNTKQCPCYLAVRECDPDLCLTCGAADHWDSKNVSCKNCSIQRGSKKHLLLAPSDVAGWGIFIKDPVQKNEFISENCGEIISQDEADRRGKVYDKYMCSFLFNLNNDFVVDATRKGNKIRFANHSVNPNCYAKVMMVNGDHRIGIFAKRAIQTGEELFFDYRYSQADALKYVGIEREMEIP
T2 sequence (O75530 whole entry partner): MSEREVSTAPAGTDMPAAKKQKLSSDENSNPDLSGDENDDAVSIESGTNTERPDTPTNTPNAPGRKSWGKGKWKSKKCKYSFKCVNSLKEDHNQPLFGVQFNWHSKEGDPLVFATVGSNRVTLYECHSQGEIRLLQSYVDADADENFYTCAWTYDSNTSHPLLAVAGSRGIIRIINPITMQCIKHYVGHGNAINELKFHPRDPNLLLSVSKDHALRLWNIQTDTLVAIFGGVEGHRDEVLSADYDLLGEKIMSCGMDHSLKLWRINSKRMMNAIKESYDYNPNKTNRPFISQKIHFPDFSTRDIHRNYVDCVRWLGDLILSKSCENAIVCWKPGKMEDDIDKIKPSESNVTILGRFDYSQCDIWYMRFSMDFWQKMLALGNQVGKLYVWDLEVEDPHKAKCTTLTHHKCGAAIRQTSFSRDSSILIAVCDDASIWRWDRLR
T2 sequence (Q15022 whole entry partner): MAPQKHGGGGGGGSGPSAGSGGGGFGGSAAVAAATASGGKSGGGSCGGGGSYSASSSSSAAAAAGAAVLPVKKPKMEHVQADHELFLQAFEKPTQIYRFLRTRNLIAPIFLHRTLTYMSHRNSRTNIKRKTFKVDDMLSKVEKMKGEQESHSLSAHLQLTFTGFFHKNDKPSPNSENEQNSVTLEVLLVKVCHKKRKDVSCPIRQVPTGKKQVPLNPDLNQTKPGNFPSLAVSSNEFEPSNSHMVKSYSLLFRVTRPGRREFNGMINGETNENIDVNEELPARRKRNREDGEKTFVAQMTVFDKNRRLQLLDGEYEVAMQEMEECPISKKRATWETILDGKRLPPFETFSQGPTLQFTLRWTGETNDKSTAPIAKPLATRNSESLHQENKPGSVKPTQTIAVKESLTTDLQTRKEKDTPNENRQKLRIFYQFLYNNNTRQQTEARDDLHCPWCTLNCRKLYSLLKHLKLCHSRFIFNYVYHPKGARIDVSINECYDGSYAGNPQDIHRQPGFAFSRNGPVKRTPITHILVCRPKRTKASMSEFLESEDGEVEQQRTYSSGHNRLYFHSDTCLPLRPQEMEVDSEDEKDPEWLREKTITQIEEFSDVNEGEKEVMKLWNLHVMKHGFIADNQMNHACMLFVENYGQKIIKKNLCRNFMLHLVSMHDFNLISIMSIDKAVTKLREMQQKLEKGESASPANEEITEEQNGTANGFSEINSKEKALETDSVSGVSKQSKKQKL
T2 sequence (Q09028 whole entry partner): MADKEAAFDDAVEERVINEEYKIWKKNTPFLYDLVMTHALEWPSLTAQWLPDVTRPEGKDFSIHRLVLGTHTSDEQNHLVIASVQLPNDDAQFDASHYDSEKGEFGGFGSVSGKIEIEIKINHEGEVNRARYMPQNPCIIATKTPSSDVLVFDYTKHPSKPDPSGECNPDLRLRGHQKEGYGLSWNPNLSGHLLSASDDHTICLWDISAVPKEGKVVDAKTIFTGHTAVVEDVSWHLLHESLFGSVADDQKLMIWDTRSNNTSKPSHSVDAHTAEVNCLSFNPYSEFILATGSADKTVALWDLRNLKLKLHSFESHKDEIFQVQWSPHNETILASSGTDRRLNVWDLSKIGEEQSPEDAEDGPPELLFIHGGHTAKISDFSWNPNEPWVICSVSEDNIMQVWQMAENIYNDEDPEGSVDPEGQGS
T2 sequence (Q6ZN18 whole entry partner): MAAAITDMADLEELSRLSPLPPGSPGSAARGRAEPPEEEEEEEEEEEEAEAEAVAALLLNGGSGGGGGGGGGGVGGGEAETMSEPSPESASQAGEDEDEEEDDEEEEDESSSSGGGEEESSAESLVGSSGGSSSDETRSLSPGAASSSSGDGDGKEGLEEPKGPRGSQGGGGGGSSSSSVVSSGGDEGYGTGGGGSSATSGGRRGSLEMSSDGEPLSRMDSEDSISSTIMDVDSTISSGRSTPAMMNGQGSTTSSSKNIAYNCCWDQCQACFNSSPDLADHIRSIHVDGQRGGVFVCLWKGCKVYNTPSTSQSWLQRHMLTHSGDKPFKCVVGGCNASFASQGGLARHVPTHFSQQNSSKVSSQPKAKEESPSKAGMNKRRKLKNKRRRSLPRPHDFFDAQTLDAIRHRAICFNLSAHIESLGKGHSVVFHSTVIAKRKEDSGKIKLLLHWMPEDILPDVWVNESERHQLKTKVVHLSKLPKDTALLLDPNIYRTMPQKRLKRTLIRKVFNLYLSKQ
T1 sequence (Q15910 whole entry): as the sequence (Q15910 whole entry Y641N) above, with N641Y counted along it
T1 sequence (O75530 whole entry partner): as the sequence (O75530 whole entry partner) above
T1 sequence (Q15022 whole entry partner): as the sequence (Q15022 whole entry partner) above
T1 sequence (Q09028 whole entry partner): as the sequence (Q09028 whole entry partner) above
T1 sequence (Q6ZN18 whole entry partner): as the sequence (Q6ZN18 whole entry partner) above

For `CCN(c1cc(-c2ccc(CN3CCOCC3)cc2)cc(C(=O)NCc2c(C)cc(C)[nH]c2=O)c1C)C1CCOCC1` [Compound 2, Tazemetostat], the Papp A→B at 2 h, 2 µM (in vitro) was 11.8 nm/s, the Papp B→A at 2 h, 2 µM (in vitro) was 281 nm/s and the “AUC (a.u.)” value [1] was 79.9 a.u.

With `CCN(c1cc(-c2ccc(CN3CCOCC3)cc2)cc(C(=O)NCc2c(C)cc(C)[nH]c2=O)c1C)C1CCOCC1` [Compound 3, Tazemetostat] the “AUC (a.u.)” value [1] was 93.5 a.u.

Compound `CCS(=O)(=O)N1CCC([C@@H](C)n2c(C)c(C(=O)NCc3c(OC)cc(C)[nH]c3=O)c3ccccc32)CC1` [Compound 10, CPI-169] has a Papp A→B at 2 h, 2 µM (in vitro) of 0.41 nm/s, a Papp B→A at 2 h, 2 µM (in vitro) of 147 nm/s and an IC50 (KARPAS-422 cells) of 860 nM. The “AUC (a.u.)” value [1] was 39.5 a.u, the IC50 ([1]; MDA-MB-231, H3K27 methylation HCA, incubation time 0.5 h, washout time 71.5 h, read-out: Mean IC50) was over 1.2e-05 M and the IC50 ([1]; MDA-MB-231, H3K27 methylation HCA, incubation time 2 h, washout time 70 h, read-out: Mean IC50) was over 1.2e-05 M. For the same compound, the IC50 ([1]; MDA-MB-231, H3K27 methylation HCA, incubation time 4 h, washout time 68 h, read-out: Mean IC50) was over 1.2e-05 M, the IC50 ([1]; MDA-MB-231, H3K27 methylation HCA, incubation time 24 h, washout time 48 h, read-out: Mean IC50) was over 1.2e-05 M and the IC50 ([1]; MDA-MB-231, H3K27 methylation HCA, incubation time 48 h, washout time 24 h, read-out: Mean IC50) was 3.1e-06 M.

With `Cc1cc(C)c(CNC(=O)c2cc(Cl)c3c(c2C)O[C@@](C)([C@H]2CC[C@H](N(C)C)CC2)O3)c(=O)[nH]1` [Compound 31, DS-3201] the Papp A→B at 2 h, 2 µM (in vitro) was 5.99 nm/s, the Papp B→A at 2 h, 2 µM (in vitro) was 209 nm/s and the “AUC (a.u.)” value [1] was 173.5 a.u. The IC50 ([1]; MDA-MB-231, read-out: Mean IC50 (M), H3K27 methylation HCA, incubation time 0.5 h, washout time 71.5 h) was 6.9e-07 M, the IC50 ([1]; MDA-MB-231, read-out: Mean IC50 (M), H3K27 methylation HCA, incubation time 1 h, washout time 71 h) was 2.3e-07 M and the IC50 ([1]; MDA-MB-231, read-out: Mean IC50 (M), H3K27 methylation HCA, incubation time 24 h, washout time 48 h) was 1.2e-07 M. It also gave an IC50 ([1]; MDA-MB-231, read-out: Mean IC50 (M), H3K27 methylation HCA, incubation time 48 h, washout time 24 h) of 3.9e-08 M and an IC50 ([1]; MDA-MB-231, read-out: Mean IC50 (M), H3K27 methylation HCA, incubation time 72 h, washout time 0 h) of 3.4e-09 M.

With `CCCc1cc(C)[nH]c(=O)c1CNC(=O)c1cc(-c2ccc(N3CCN(CCCCCCNC(=O)CCCCCN4\C(=C/C=C/C=C/C5=[N+](CCOC)c6ccc(S(=O)(=O)O)cc6C5(C)C)C(C)(C)c5cc(S(=O)(=O)O)ccc54)CC3)nc2)cc2c1cnn2C(C)C.O=C(O)C(F)(F)F.O=C([O-])C(F)(F)F` [fluorescent probe, 2-[(1E,3E)-5-[(2Z)-3,3-dimethyl-1-{5-[(6-{4-[5-(4-{[(6-methyl-2-oxo-4-propyl-1,2-dihydropyridin-3-yl)methyl]carbamoyl}-1-(propan-2-yl)-1H-indazol-6-yl)pyridin-2-yl]piperazin-1-yl}hexyl)carbamoyl]pentyl}-5-sulfo-2,3-dihydro-1H-indol-2-ylidene]penta-1,3-dien-1-yl]-1-(2-methoxyethyl)-3,3-dimethyl-5-sulfo-3H-indol-1-ium trifluoroacetic acid trifluoroacetate] the Kd (PRC2/EZH2+/+ [2]; EZH2+/+, with H3K27me3 (AP), 25 °C, read-out: Equilibrium KD) was 0.39 nM and 0.393 nM, the Kd (PRC2/EZH2+/+ [2]; EZH2+/+, without H3K27me3 (AP), 25 °C, read-out: Equilibrium KD) was 1.13 nM and the Kd (PRC2/EZH2+/+ [2]; wild type EZH2, absence of H3K27me3 peptide, read-out: affinity in equilibrium conditions) was 1.1 ± 0.2 nM. For the same compound, the Kd (PRC2/EZH2+/+ [2]; wild type EZH2, saturating concentrations of H3K27me3 peptide, read-out: affinity in equilibrium conditions) was 0.4 ± 0.01 nM, the Kd (PRC2/EZH2+/+ [3]; with AP, 25 °C) was 0.65 nM and 0.653 nM and the koff (PRC2/EZH2+/+ [3]; with AP, 25 °C) was 0.00073 s⁻¹. It also gave a kon (PRC2/EZH2+/+ [3]; with AP, 25 °C) of 1.2e+06 M⁻¹ s⁻¹, a Kinetic koff (PRC2/EZH2+/+ [3]; with AP, 25 °C) of 0.000728 s⁻¹ and a Kinetic kon (PRC2/EZH2+/+ [3]; with AP, 25 °C) of 1.16e+06 M⁻¹ s⁻¹. For the same compound, the Kd (PRC2/EZH2+/+ [3]; without AP, 5 °C) was 1.16 nM, the koff (PRC2/EZH2+/+ [3]; without AP, 5 °C) was 0.000177 s⁻¹ and the kon (PRC2/EZH2+/+ [3]; without AP, 5 °C) was 152000 M⁻¹ s⁻¹. The Kd (PRC2/EZH2+/+ [3]; without AP, 15 °C) was 0.53 nM, the koff (PRC2/EZH2+/+ [3]; without AP, 15 °C) was 0.000505 s⁻¹ and the kon (PRC2/EZH2+/+ [3]; without AP, 15 °C) was 953000 M⁻¹ s⁻¹. For the same compound, the Kd (PRC2/EZH2+/+ [3]; without AP, 25 °C) was 1.4 nM and 1.43 nM, the koff (PRC2/EZH2+/+ [3]; without AP, 25 °C) was 0.0027 s⁻¹ and the kon (PRC2/EZH2+/+ [3]; without AP, 25 °C) was 2e+06 M⁻¹ s⁻¹. For the same compound, the Kinetic koff (PRC2/EZH2+/+ [3]; without AP, 25 °C) was 0.00273 s⁻¹, the Kinetic kon (PRC2/EZH2+/+ [3]; without AP, 25 °C) was 1.96e+06 M⁻¹ s⁻¹ and the Kd (PRC2/EZH2+/+ [3]; without AP, 30 °C) was 5.98 nM. It also gave a koff (PRC2/EZH2+/+ [3]; without AP, 30 °C) of 0.0051 s⁻¹, a kon (PRC2/EZH2+/+ [3]; without AP, 30 °C) of 853000 M⁻¹ s⁻¹ and a Kd (PRC2/EZH2+/+ [3]; without AP, 37 °C) of 3.71 nM. The koff (PRC2/EZH2+/+ [3]; without AP, 37 °C) was 0.00823 s⁻¹, the kon (PRC2/EZH2+/+ [3]; without AP, 37 °C) was 2.22e+06 M⁻¹ s⁻¹ and the Kd (PRC2/EZH2Y641N [4]; with AP) was 3.8 nM and 3.76 nM. The koff (PRC2/EZH2Y641N [4]; with AP) was 0.0035 s⁻¹, the kon (PRC2/EZH2Y641N [4]; with AP) was 1e+06 M⁻¹ s⁻¹ and the Kinetic koff (PRC2/EZH2Y641N [4]; with AP) was 0.00345 s⁻¹. For the same compound, the Kinetic kon (PRC2/EZH2Y641N [4]; with AP) was 1.01e+06 M⁻¹ s⁻¹, the Kd (PRC2/EZH2Y641N [4]; without AP) was 27 nM and the koff (PRC2/EZH2Y641N [4]; without AP) was 0.018 s⁻¹. It also gave a kon (PRC2/EZH2Y641N [4]; without AP) of 680000 M⁻¹ s⁻¹, a Kinetic koff (PRC2/EZH2Y641N [4]; without AP) of 0.0177 s⁻¹ and a Kinetic kon (PRC2/EZH2Y641N [4]; without AP) of 679000 M⁻¹ s⁻¹. For the same compound, the Kd (PRC2/EZH2Y641N [5]; with H3K27me3 (AP)) was 2.7 nM and 2.72 nM and the Kd (PRC2/EZH2Y641N [5]; without H3K27me3 (AP)) was 9.56 nM.

In the case of UNC2239, the IC50 (EZH2) is given as 20 nM.
